Patent publication US11345712B2, “Protein-targeting compounds and pharmaceutical compositions thereof, and their therapeutic applications” (BioTheryX, Inc., priority 2019, dated 2022)

The compounds below were run on MOLM-13 cells (assay: MOLM-13 cell viability assay (CellTiter-Glo)). Conditions: Homo sapiens, MOLM-13, 72 h, 3 days, concentration of 1 μM, read-out: Antiproliferative Activity (inhibition, MOLM-13 cell viability).
Format: cell-based
Summary of the method: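 Luminescent ATP read-out (CellTiter-Glo, 10 min with shaking) after 3-day compound or DMSO exposure at 37° C, 5% CO2. Cells plated at 2,500/well in RPMI 1640 plus 10% FBS.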
For O=C(Cc1ccc(N2CCCC2)cc1)NCc1scc2c1CN(C1CCC(=O)NC1=O)C2=O (stereo not drawn) [II-93, N-((5-(2,6-dioxopiperidin-3-yl)-4-oxo-5,6-dihydro-4H-thieno[3,4-c]pyrrol-1-yl)methyl)-2-(4-(pyrrolidin-1-yl)phenyl)acetamide], the cytotoxicity at 1 µM was < 25%.
For CC(C)C(C(=O)NCc1scc2c1CN(C1CCC(=O)NC1=O)C2=O)c1ccc(C(C)(C)C)cc1 (stereo not drawn) [II-94, 2-(4-(tert-butyl)phenyl)-N-((5-(2,6-dioxopiperidin-3-yl)-4-oxo-5,6-dihydro-4H-thieno[3,4-c]pyrrol-1-yl)methyl)-3-methylbutanamide], the cytotoxicity at 1 µM was < 25%.
In the case of Cc1ccc(C(C(=O)NCc2scc3c2CN(C2CCC(=O)NC2=O)C3=O)C(C)C)cc1Cl (stereo not drawn) [II-95, 2-(3-chloro-4-methylphenyl)-N-((5-(2,6-dioxopiperidin-3-yl)-4-oxo-5,6-dihydro-4H-thieno[3,4-c]pyrrol-1-yl)methyl)-3-methylbutanamide], the cytotoxicity at 1 µM is reported as 25 to 50%.
With CCc1ccc(NC(=O)NCc2cc3c(s2)C(=O)N(C2CCC(=O)NC2=O)C3)cc1N(C)C (stereo not drawn) [II-96, 1-(3-(dimethylamino)-4-ethylphenyl)-3-((5-(2,6-dioxopiperidin-3-yl)-6-oxo-5,6-dihydro-4H-thieno[2,3-c]pyrrol-2-yl)methyl)urea] the cytotoxicity at 1 µM was > 80%.
In the case of CCN(CC)c1cc(NC(=O)NCc2cc3c(s2)C(=O)N(C2CCC(=O)NC2=O)C3)ccc1F (stereo not drawn) [II-97, 1-(3-(diethylamino)-4-fluorophenyl)-3-((5-(2,6-dioxopiperidin-3-yl)-6-oxo-5,6-dihydro-4H-thieno[2,3-c]pyrrol-2-yl)methyl)urea], the cytotoxicity at 1 µM is reported as > 80%.
With Cc1ccc(NC(=O)NCc2cc3c(s2)C(=O)N(C2CCC(=O)NC2=O)C3)cc1N1CCCC1 (stereo not drawn) [II-98, 1-((5-(2,6-dioxopiperidin-3-yl)-6-oxo-5,6-dihydro-4H-thieno[2,3-c]pyrrol-2-yl)methyl)-3-(4-methyl-3-(pyrrolidin-1-yl)phenyl)urea] the cytotoxicity at 1 µM was > 80%.
In the case of O=C1CCC(N2Cc3cc(CNC(=O)Nc4cccc(N5CCCC5)c4)sc3C2=O)C(=O)N1 (stereo not drawn) [II-99, 1-((5-(2,6-dioxopiperidin-3-yl)-6-oxo-5,6-dihydro-4H-thieno[2,3-c]pyrrol-2-yl)methyl)-3-(3-(pyrrolidin-1-yl)phenyl)urea], the cytotoxicity at 1 µM is reported as > 80%.
For CCN(C)c1cc(NC(=O)NCc2cc3c(s2)C(=O)N(C2CCC(=O)NC2=O)C3)ccc1C (stereo not drawn) [II-100, 1-((5-(2,6-dioxopiperidin-3-yl)-6-oxo-5,6-dihydro-4H-thieno[2,3-c]pyrrol-2-yl)methyl)-3-(3-(ethyl(methyl)amino)-4-methylphenyl)urea], the cytotoxicity at 1 µM was > 80%.
In the case of Cc1ccc(CCC(C)(C)C(=O)NCc2scc3c2CN([C@H]2CCC(=O)NC2=O)C3=O)cc1Cl [II-104, (S)-4-(3-chloro-4-methylphenyl)-N-((5-(2,6-dioxopiperidin-3-yl)-4-oxo-5,6-dihydro-4H-thieno[3,4-c]pyrrol-1-yl)methyl)-2,2-dimethylbutanamide], the cytotoxicity at 1 µM is reported as < 25%.
For Cc1ccc(NC(=O)NCc2cc3c(s2)C(=O)N(C2CCC(=O)N(COP(=O)(OC(C)(C)C)OC(C)(C)C)C2=O)C3)cc1N(C)C (stereo not drawn) [II-105, di-tert-butyl ((3-(2-((3-(3-(dimethylamino)-4-methylphenyl)ureido)-methyl)-6-oxo-4,6-dihydro-5H-thieno[2,3-c]pyrrol-5-yl)-2,6-dioxopiperidin-1-yl)methyl) phosphate], the cytotoxicity at 1 µM was < 25%.
With CC(C)c1ccc(C(C(=O)NCc2scc3c2CN(C2CCC(=O)NC2=O)C3=O)C(C)C)cc1 (stereo not drawn) [II-106, N-((5-(2,6-dioxopiperidin-3-yl)-4-oxo-5,6-dihydro-4H-thieno[3,4-c]pyrrol-1-yl)methyl)-2-(4-isopropylphenyl)-3-methylbutanamide] the cytotoxicity at 1 µM was < 25%.
CN(C)C(C(=O)NCc1scc2c1CN(C1CCC(=O)NC1=O)C2=O)c1ccccc1F (stereo not drawn) [II-108, 2-(dimethylamino)-N-((5-(2,6-dioxopiperidin-3-yl)-4-oxo-5,6-dihydro-4H-thieno[3,4-c]pyrrol-1-yl)methyl)-2-(2-fluorophenyl)acetamide] was tested, and the cytotoxicity at 1 µM was < 25%.
In the case of CCCOc1ccc(C(N)C(=O)NCc2scc3c2CN(C2CCC(=O)NC2=O)C3=O)cc1 (stereo not drawn) [II-112, 2-amino-N-((5-(2,6-dioxopiperidin-3-yl)-4-oxo-5,6-dihydro-4H-thieno[3,4-c]pyrrol-1-yl)methyl)-2-(4-propoxyphenyl)acetamide], the cytotoxicity at 1 µM is reported as < 25%.
For NC(C(=O)NCc1scc2c1CN(C1CCC(=O)NC1=O)C2=O)c1ccc(O)cc1 (stereo not drawn) [II-113, 2-amino-N-((5-(2,6-dioxopiperidin-3-yl)-4-oxo-5,6-dihydro-4H-thieno[3,4-c]pyrrol-1-yl)methyl)-2-(4-hydroxyphenyl)acetamide], the cytotoxicity at 1 µM was < 25%.
For Cc1ccc(NC(=O)NCc2cc3c(s2)C(=O)N(C2CCC(=O)NC2=O)C3=O)cc1N(C)C (stereo not drawn) [II-114, 1-(3-(dimethylamino)-4-methylphenyl)-3-((5-(2,6-dioxopiperidin-3-yl)-4,6-dioxo-5,6-dihydro-4H-thieno[2,3-c]pyrrol-2-yl)methyl)urea], the cytotoxicity at 1 µM was 25 to 50%.
Cc1cc(CCCC(=O)NCc2scc3c2CN(C2CCC(=O)NC2=O)C3=O)ccc1N(C)C (stereo not drawn) [II-115, 4-(4-(dimethylamino)-3-methylphenyl)-N-((5-(2,6-dioxopiperidin-3-yl)-4-oxo-5,6-dihydro-4H-thieno[3,4-c]pyrrol-1-yl)methyl)butanamide] was tested, and the cytotoxicity at 1 µM was < 25%.
In the case of COc1c(F)cccc1CC(=O)NCc1cc2c(s1)C(=O)N(C1CCC(=O)NC1=O)C2 (stereo not drawn) [II-116, N-((5-(2,6-dioxopiperidin-3-yl)-6-oxo-5,6-dihydro-4H-thieno[2,3-c]pyrrol-2-yl)methyl)-2-(3-fluoro-2-methoxyphenyl)acetamide], the cytotoxicity at 1 µM is reported as < 25%.
In the case of O=C1CCC(N2Cc3c(csc3CNC(=S)Nc3c(Cl)c(Cl)cc(Cl)c3Cl)C2=O)C(=O)N1 (stereo not drawn) [II-123, 1-((5-(2,6-dioxopiperidin-3-yl)-4-oxo-5,6-dihydro-4H-thieno[3,4-c]pyrrol-1-yl)methyl)-3-(2,3,5,6-tetrachlorophenyl)thiourea], the cytotoxicity at 1 µM is reported as < 25%.
CC(C)(C)c1ccc(S(=O)(=O)NCc2scc3c2CN(C2CCC(=O)NC2=O)C3=O)cc1 (stereo not drawn) [II-124, 4-(tert-butyl)-N-((5-(2,6-dioxopiperidin-3-yl)-4-oxo-5,6-dihydro-4H-thieno[3,4-c]pyrrol-1-yl)methyl)benzenesulfonamide] was tested, and the cytotoxicity at 1 µM was < 25%.
Compound CC(C)(C)c1ccc(C2(C(=O)NCc3scc4c3CN(C3CCC(=O)NC3=O)C4=O)CC2)cc1 (stereo not drawn) [II-127, 1-(4-(tert-butyl)phenyl)-N-((5-(2,6-dioxopiperidin-3-yl)-4-oxo-5,6-dihydro-4H-thieno[3,4-c]pyrrol-1-yl)methyl)cyclopropane-1-carboxamide] has a cytotoxicity at 1 µM of 25 to 50%.
CC(C)(C)c1ccc(CS(=O)(=O)NCc2scc3c2CN(C2CCC(=O)NC2=O)C3=O)cc1 (stereo not drawn) [II-128, 1-(4-(tert-butyl)phenyl)-N-((5-(2,6-dioxopiperidin-3-yl)-4-oxo-5,6-dihydro-4H-thieno[3,4-c]pyrrol-1-yl)methyl)methanesulfonamide] was tested, and the cytotoxicity at 1 µM was > 80%.
In the case of CC(C)(C)c1ccc(C(F)(F)C(=O)NCc2scc3c2CN(C2CCC(=O)NC2=O)C3=O)cc1 (stereo not drawn) [II-129, 2-(4-(tert-butyl)phenyl)-N-((5-(2,6-dioxopiperidin-3-yl)-4-oxo-5,6-dihydro-4H-thieno[3,4-c]pyrrol-1-yl)methyl)-2,2-difluoroacetamide], the cytotoxicity at 1 µM is reported as < 25%.
For CC(C)(C)c1ccc(S(=O)(=O)NCCc2scc3c2CN(C2CCC(=O)NC2=O)C3=O)cc1 (stereo not drawn) [II-131, 4-(tert-butyl)-N-(2-(5-(2,6-dioxopiperidin-3-yl)-4-oxo-5,6-dihydro-4H-thieno[3,4-c]pyrrol-1-yl)ethyl)benzenesulfonamide], the cytotoxicity at 1 µM was < 25%.
CC(C)(C)c1ccc(C(O)C(=O)NCc2scc3c2CN(C2CCC(=O)NC2=O)C3=O)cc1 (stereo not drawn) [II-132, 2-(4-(tert-butyl)phenyl)-N-((5-(2,6-dioxopiperidin-3-yl)-4-oxo-5,6-dihydro-4H-thieno[3,4-c]pyrrol-1-yl)methyl)-2-hydroxyacetamide] was tested, and the cytotoxicity at 1 µM was 25 to 50%.
CC(C)(C)c1ccc(C(O)(C(=O)NCc2scc3c2CN(C2CCC(=O)NC2=O)C3=O)C(F)(F)F)cc1 (stereo not drawn) [II-133, 2-(4-(tert-butyl)phenyl)-N-((5-(2,6-dioxopiperidin-3-yl)-4-oxo-5,6-dihydro-4H-thieno[3,4-c]pyrrol-1-yl)methyl)-3,3,3-trifluoro-2-hydroxypropanamide] was tested, and the cytotoxicity at 1 µM was < 25%.
O=C1CCC(N2Cc3c(csc3CNC(=O)NCCCOc3ccccc3)C2=O)C(=O)N1 (stereo not drawn) [II-145, 1-((5-(2,6-dioxopiperidin-3-yl)-4-oxo-5,6-dihydro-4H-thieno[3,4-c]pyrrol-1-yl)methyl)-3-(3-phenoxypropyl)urea] was tested, and the cytotoxicity at 1 µM was 50 to 80%.
For O=C(CCCc1ccc(N2CCOCC2)cc1)NCc1scc2c1CN(C1CCC(=O)NC1=O)C2=O (stereo not drawn) [II-146, N-((5-(2,6-dioxopiperidin-3-yl)-4-oxo-5,6-dihydro-4H-thieno[3,4-c]pyrrol-1-yl)methyl)-4-(4-morpholinophenyl)butanamide], the cytotoxicity at 1 µM was < 25%.
In the case of CC(C)(C)c1ccc(C(C(=O)NCc2scc3c2CN(C2CCC(=O)NC2=O)C3=O)C(F)(F)F)cc1 (stereo not drawn) [II-147, 2-(4-(tert-butyl)phenyl)-N-((5-(2,6-dioxopiperidin-3-yl)-4-oxo-5,6-dihydro-4H-thieno[3,4-c]pyrrol-1-yl)methyl)-3,3,3-trifluoropropanamide], the cytotoxicity at 1 µM is reported as < 25%.
With CC(C)(C)c1ccc(NC(=O)NCc2scc3c2CN(C2CCC(=O)NC2=O)C3=O)cc1 (stereo not drawn) [II-148, 1-(4-(tert-butyl)phenyl)-3-((5-(2,6-dioxopiperidin-3-yl)-4-oxo-5,6-dihydro-4H-thieno[3,4-c]pyrrol-1-yl)methyl)urea] the cytotoxicity at 1 µM was > 80%.
O=C(/C=C/c1ccc(C2(C(F)(F)F)CC2)cc1)NCc1ccc2c(c1)CN(C1CCC(=O)NC1=O)C2=O (stereo not drawn) [II-149, (E)-N-((2-(2,6-dioxopiperidin-3-yl)-1-oxoisoindolin-5-yl)methyl)-3-(4-(1-(trifluoromethyl)cyclopropyl)phenyl)acrylamide] was tested, and the cytotoxicity at 1 µM was > 80%.
